Source: US8927587B2, “Chemical compounds” (Pfizer Limited, priority 2012, dated 2015)
pIC50: −log10 of the molar value.

Molecular target: T1, hNav1.8 (Homo sapiens, UniProt Q9Y5Y9)
T1 construct: host or cells: HEK cells, stably transfected
Experiment: hNav1.8 whole-cell patch-clamp electrophysiology (conventional or PatchXpress 7000) in stably transfected HEK cells
Assay type: cell-based
Conditions: not given
Method in brief: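 Whole-cell voltage clamp at 22-24 °C in HEK cells stably expressing hNav1.8, manually or on PatchXpress. Current evoked by 20 msec step to 0 mV after 8 s prepulse to each cell's inactivation V1/2; single-concentration % inhibition converted to estimated IC50, using only 20-80% inhibition values, averaged over replicates.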

T1 sequence (Q9Y5Y9 whole entry): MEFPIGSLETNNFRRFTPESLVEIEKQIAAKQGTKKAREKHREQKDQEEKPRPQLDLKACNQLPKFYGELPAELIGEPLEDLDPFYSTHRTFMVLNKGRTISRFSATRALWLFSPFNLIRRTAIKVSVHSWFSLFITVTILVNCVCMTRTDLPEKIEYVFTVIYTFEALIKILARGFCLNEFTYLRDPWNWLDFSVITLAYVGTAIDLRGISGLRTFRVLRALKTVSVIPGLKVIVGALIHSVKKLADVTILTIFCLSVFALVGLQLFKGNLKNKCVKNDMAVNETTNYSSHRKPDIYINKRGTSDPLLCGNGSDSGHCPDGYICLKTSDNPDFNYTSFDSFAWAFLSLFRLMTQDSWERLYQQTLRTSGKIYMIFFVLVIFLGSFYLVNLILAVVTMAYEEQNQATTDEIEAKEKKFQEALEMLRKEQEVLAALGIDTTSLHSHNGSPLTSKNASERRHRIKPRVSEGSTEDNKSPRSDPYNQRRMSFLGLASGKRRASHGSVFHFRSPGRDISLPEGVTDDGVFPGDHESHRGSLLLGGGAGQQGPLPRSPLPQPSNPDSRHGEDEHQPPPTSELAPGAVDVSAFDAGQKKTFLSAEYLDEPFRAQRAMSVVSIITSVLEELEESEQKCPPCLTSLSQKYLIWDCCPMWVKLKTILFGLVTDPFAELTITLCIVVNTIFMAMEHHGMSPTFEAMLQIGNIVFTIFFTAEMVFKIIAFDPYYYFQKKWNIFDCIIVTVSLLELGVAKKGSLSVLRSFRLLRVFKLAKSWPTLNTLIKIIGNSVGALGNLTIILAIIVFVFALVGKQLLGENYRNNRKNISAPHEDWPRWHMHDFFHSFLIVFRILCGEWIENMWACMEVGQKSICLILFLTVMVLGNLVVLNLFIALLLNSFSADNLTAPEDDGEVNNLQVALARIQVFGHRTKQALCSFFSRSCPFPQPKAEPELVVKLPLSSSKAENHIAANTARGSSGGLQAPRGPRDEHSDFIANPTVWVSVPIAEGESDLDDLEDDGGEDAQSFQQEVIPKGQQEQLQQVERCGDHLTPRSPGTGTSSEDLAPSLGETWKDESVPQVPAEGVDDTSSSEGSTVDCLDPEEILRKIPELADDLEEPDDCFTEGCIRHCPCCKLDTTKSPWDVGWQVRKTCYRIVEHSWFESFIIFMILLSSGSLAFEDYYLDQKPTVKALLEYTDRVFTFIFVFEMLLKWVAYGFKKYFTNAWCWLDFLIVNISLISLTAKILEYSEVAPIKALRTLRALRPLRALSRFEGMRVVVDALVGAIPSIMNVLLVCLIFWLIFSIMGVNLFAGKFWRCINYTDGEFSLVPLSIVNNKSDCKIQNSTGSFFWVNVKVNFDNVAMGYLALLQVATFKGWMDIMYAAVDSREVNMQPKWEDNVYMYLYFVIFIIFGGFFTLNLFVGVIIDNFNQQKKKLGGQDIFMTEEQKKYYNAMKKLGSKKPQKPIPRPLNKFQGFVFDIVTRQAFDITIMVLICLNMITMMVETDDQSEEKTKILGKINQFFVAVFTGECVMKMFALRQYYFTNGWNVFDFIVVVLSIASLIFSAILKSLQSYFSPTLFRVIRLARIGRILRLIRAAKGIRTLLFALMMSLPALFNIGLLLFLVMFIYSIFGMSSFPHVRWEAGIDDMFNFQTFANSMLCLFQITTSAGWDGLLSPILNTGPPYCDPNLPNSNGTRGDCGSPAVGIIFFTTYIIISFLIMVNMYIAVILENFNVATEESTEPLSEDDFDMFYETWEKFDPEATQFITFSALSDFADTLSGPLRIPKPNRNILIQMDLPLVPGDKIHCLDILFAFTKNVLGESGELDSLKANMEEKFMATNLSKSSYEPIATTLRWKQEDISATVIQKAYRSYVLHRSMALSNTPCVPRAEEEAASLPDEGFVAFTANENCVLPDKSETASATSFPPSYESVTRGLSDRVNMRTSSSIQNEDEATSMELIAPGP

**Q.** `CC(C)(C)c1ccc2[nH]c(C3(N)CCCCC3)nc2c1` [Example 17, 1-(5-tert-Butyl-1H-benzimidazol-2-yl)cyclohexanamine] was tested. Which pIC50 did it give?
**A.** The pIC50 was 6.33.

Same assay, conditions: estimated IC50 calculated from single point % inhibition; HEK cells expressing hNav1.8; 8 sec prepulse to V1/2, 20 msec step to 0 mV; average of replicates; read-out: Nav1.8 EIC50

**Q.** `CO[C@@H](C)[C@@H](N)c1nc2cc(-c3ccc(C#N)cc3)ccc2[nH]1` [Example 93, 4-{2-[(1S,2S)-1-Amino-2-methoxypropyl]-1H-benzimidazol-5-yl}benzonitrile] was tested. Which pIC50 did it give?
**A.** The pIC50 was 6.13.

**Q.** `CC(C)c1ccc2[nH]c([C@@H](N)[C@H](O)C(C)C)nc2c1` [Example 125, (1R,2R)-1-Amino-3-methyl-1-[5-(propan-2-yl)-1H-benzimidazol-2-yl]butan-2-ol] was tested. Which pIC50 did it give?
**A.** The pIC50 was 5.65.

**Q.** With `CC[C@@H](O)[C@H](N)c1nc2cc(C(C)(C)C)ccc2[nH]1` [Example 139, (1R,2R)-1-Amino-1-(5-tert-butyl-1H-benzimidazol-2-yl)butan-2-ol] as the molecule, how does the pIC50 read?
**A.** The pIC50 was 7.36.

**Q.** How did the pIC50 turn out when `CO[C@@H](C)[C@@H](N)c1nc2cc(C(C)(C)C)ccc2[nH]1` [Example 94, (1S,2S)-1-(5-tert-Butyl-1H-benzimidazol-2-yl)-2-methoxypropan-1-amine] was run?
**A.** The pIC50 was 5.97.

**Q.** `N#Cc1ccc(-c2ccc3[nH]c(C4(N)CCCC4)nc3c2)cc1` [Example 59, 4-[2-(1-aminocyclopentyl)-1H-benzimidazol-5-yl]benzonitrile] was tested. Which pIC50 did it give?
**A.** Its pIC50 is 6.98.

**Q.** `CC(N)(CO)c1nc2cc(-c3ccc(C#N)c(F)c3)ccc2[nH]1` (stereo not shown) [Example 150, 4-(2-(2-Amino-1-hydroxypropan-2-yl)-1H-benzo[d]imidazol-5-yl)-2-fluorobenzonitrile] was tested. Which pIC50 did it give?
**A.** Its pIC50 is 6.87.

**Q.** How did the pIC50 turn out when `CC(C)(C)c1ccc2[nH]c([C@H]3CCCN3)nc2c1` [Example 25, 5-tert-Butyl-2-[(2R)-pyrrolidin-2-yl]-1H-benzimidazole] was run?
**A.** Its pIC50 is 7.13.

**Q.** `CC(C)(C)c1ccc2[nH]c([C@@H](N)CCCO)nc2c1` [Example 140, (4S)-4-Amino-4(5-tert-butyl-1H-benzimidazol-2-yl)butan-1-ol] was tested. Which pIC50 did it give?
**A.** The pIC50 was 6.65.

**Q.** With `CO[C@H](C)[C@H](N)c1nc2cc(-c3ccc(C#N)cc3Cl)ccc2[nH]1` [Example 84, 4-{2-[(1R,2R)-1-Amino-2-methoxypropyl]-1H-benzimidazol-5-yl}-3-chlorobenzonitrile] as the molecule, how does the pIC50 read?
**A.** Its pIC50 is 7.09.

**Q.** How did the pIC50 turn out when `CC(C)(C)c1ccc2[nH]c([C@@H](N)C(C)(C)C(N)=O)nc2c1` [Example 141, (3S)-3-Amino-3-(5-tert-butyl-1H-benzimidazol-2-yl)-2,2-dimethylpropanamide] was run?
**A.** The pIC50 was 6.10.

**Q.** `CO[C@H](C)[C@H](N)c1nc2cc(C(C)C)ccc2[nH]1` [Example 123, (1R,2R)-2-Methoxy-1-[5-(propan-2-yl)-1H-benzimidazol-2-yl]propan-1-amine] was tested. Which pIC50 did it give?
**A.** Its pIC50 is 5.97.

**Q.** How did the pIC50 turn out when `C[C@@H](OC(N)=O)[C@H](N)c1nc2cc(C(C)(C)C)ccc2[nH]1` [Example 107, (1R,2R)-1-Amino-1-(6-tert-butyl-1H-benzimidazol-2-yl)propan-2-yl carbamate] was run?
**A.** The pIC50 was 6.45.

**Q.** `CC(C)(C)Cc1ccc2[nH]c(C(C)(N)CO)nc2c1` (stereo not shown) [Example 115, 2-Amino-2-[6-(2,2-dimethylpropyl)-1H-benzimidazol-2-yl]propan-1-ol] was tested. Which pIC50 did it give?
**A.** The pIC50 was 6.56.

**Q.** With `COC[C@H](N)c1nc2cc(C(C)(C)C)ccc2[nH]1` [Example 12, (1R)-1-(5-tert-Butyl-1H-benzimidazol-2-yl)-2-methoxyethanamine] as the molecule, how does the pIC50 read?
**A.** Its pIC50 is 6.61.

**Q.** How did the pIC50 turn out when `CC(C)(C)c1ccc2[nH]c([C@H]3CCN3)nc2c1` [Example 130, 2-[(2R)-Azetidin-2-yl]-5-tert-butyl-1H-benzimidazole] was run?
**A.** Its pIC50 is 5.87.

**Q.** `COC[C@H](N)c1nc2cc(-c3ccc(C#N)cc3)ccc2[nH]1` [Example 153, 4-{2-[(1R)-1-Amino-2-methoxyethyl]-1H-benzimidazol-5-yl}benzonitrile] was tested. Which pIC50 did it give?
**A.** The pIC50 was 7.02.

**Q.** With `CC(C)C[C@@H](N)c1nc2cc(-c3ccc(C#N)cc3)ccc2[nH]1` [Example 47, 4-{2-[(1R)-1-Amino-3-methylbutyl]-1H-benzimidazol-5-yl}benzonitrile] as the molecule, how does the pIC50 read?
**A.** The pIC50 was 6.11.

**Q.** How did the pIC50 turn out when `CC(C)(C)c1ccc2[nH]c([C@@H](N)C(C)(C)C)nc2c1` [Example 6, (1S)-1-(5-tert-Butyl-1H-benzimidazol-2-yl)-2,2-dimethylpropan-1-amine] was run?
**A.** The pIC50 was 6.36.

**Q.** How did the pIC50 turn out when `C[C@@H](O)[C@H](N)c1nc2c(Cl)c(-c3ccc(C#N)cc3)ccc2[nH]1` [Example 99, 4-{2-[(1R,2R)-1-Amino-2-hydroxypropyl]-4-chloro-1H-benzimidazol-5-yl}benzonitrile] was run?
**A.** Its pIC50 is 5.60.

**Q.** With `N#Cc1ccc(-c2ccc3[nH]c([C@@H]4C[C@H](O)CN4)nc3c2)cc1` [Example 49, 4-{2-[(2S,4S)-4-Hydroxypyrrolidin-2-yl]-1H-benzimidazol-5-yl}benzonitrile] as the molecule, how does the pIC50 read?
**A.** The pIC50 was 5.98.

**Q.** With `N#Cc1ccc(-c2ccc3[nH]c([C@H](N)CC(N)=O)nc3c2)cc1` [Example 44, (3R)-3-Amino-3-[5-(4-cyanophenyl)-1H-benzimidazol-2-yl]propanamide] as the molecule, how does the pIC50 read?
**A.** Its pIC50 is 6.05.

**Q.** `CC(C)c1ccc2[nH]c([C@@H](N)CC(N)=O)nc2c1` [Example 95, (3S)-3-Amino-3-[5-(propan-2-yl)-1H-benzimidazol-2-yl]propanamide] was tested. Which pIC50 did it give?
**A.** The pIC50 was 5.48.

**Q.** With `N#Cc1ccc(-c2ccc3[nH]c(C4(N)Cc5ccccc5C4)nc3c2)cc1` [Example 34, 4-[2-(2-Amino-2,3-dihydro-1H-inden-2-yl)-1H-benzimidazol-5-yl]benzonitrile] as the molecule, how does the pIC50 read?
**A.** Its pIC50 is 7.51.

**Q.** `CC(C)(C)c1ccc2[nH]c([C@@H]3C[C@H](O)CN3)nc2c1` [Example 22, (3S,5S)-5-(5-tert-Butyl-1H-benzimidazol-2-yl)pyrrolidin-3-ol] was tested. Which pIC50 did it give?
**A.** Its pIC50 is 6.97.

**Q.** With `C[C@@H](O)[C@H](N)c1nc2cc(-c3ccc(C#N)cc3C(F)(F)F)ccc2[nH]1` [Example 100, 4-{2-[(1R,2R)-1-Amino-2-hydroxypropyl]-1H-benzimidazol-5-yl}-3-(trifluoromethyl)benzonitrile] as the molecule, how does the pIC50 read?
**A.** Its pIC50 is 7.08.

**Q.** How did the pIC50 turn out when `CC(C)[C@@H](N)c1nc2cc(-c3ccc(C#N)cc3)ccc2[nH]1` [Example 56, 4-{2-[(1R)-1-amino-2-methylpropyl]-1H-benzimidazol-5-yl}benzonitrile] was run?
**A.** Its pIC50 is 7.01.

**Q.** With `CCC(C)(C)c1ccc2[nH]c(C(C)(C)N)nc2c1` [Example 68, 2-[5-(2-Methylbutan-2-yl)-1H-benzimidazol-2-yl]propan-2-amine] as the molecule, how does the pIC50 read?
**A.** The pIC50 was 6.20.

**Q.** With `C[C@H](C(N)=O)[C@H](N)c1nc2cc(C(C)(C)C)ccc2[nH]1` (single isomer, unassigned) [Example 104] as the molecule, how does the pIC50 read?
**A.** Its pIC50 is 5.80.

**Q.** With `C[C@@H](O)[C@H](N)c1nc2cc(-c3cc(F)c(C#N)c(F)c3)ccc2[nH]1` [Example 89, 4-{2-[(1R,2R)-1-Amino-2-hydroxypropyl]-1H-benzimidazol-5-yl}-2,6-difluorobenzonitrile] as the molecule, how does the pIC50 read?
**A.** Its pIC50 is 5.62.

**Q.** With `CO[C@@H](C)[C@H](N)c1nc2cc(C(C)(C)C)ccc2[nH]1` [Example 128, (1R,2S)-1-(5-tert-Butyl-1H-benzimidazol-2-yl)-2-methoxypropan-1-amine] as the molecule, how does the pIC50 read?
**A.** The pIC50 was 6.43.

**Q.** How did the pIC50 turn out when `N#Cc1ccc(-c2ccc3[nH]c([C@@H]4C[C@H](F)CN4)nc3c2)cc1` [Example 61, 4-{2-[(2S,4S)-4-fluoropyrrolidin-2-yl]-1H-benzimidazol-5-yl}benzonitrile] was run?
**A.** Its pIC50 is 6.16.

**Q.** With `CC(C)[C@H](N)c1nc2cc(-c3ccc(C#N)cc3)ccc2[nH]1` [Example 52, 4-{2-[(1S)-1-amino-2-methylpropyl]-1H-benzimidazol-5-yl}benzonitrile] as the molecule, how does the pIC50 read?
**A.** Its pIC50 is 6.15.

**Q.** With `CC(C)CC[C@H](N)c1nc2cc(C(C)(C)C)ccc2[nH]1` [Example 1, (1S)-1-(5-tert-Butyl-1H-benzimidazol-2-yl)-4-methylpentan-1-amine] as the molecule, how does the pIC50 read?
**A.** Its pIC50 is 6.90.
